Results on 1 molecule are retold here after patent publication US7144880B2, “Compositions relating to novel compounds and targets thereof” (Regents of the University of Michigan, priority 2003, dated 2006).

pEC50, pKd: −log10 of the molar value.

In data set [1] the target is T1, mitochondrial F1F0-ATPase (Bos taurus, UniProt P13621).
T1 construct: from tissue
As to the kind of experiment: ATPase activity in sub-mitochondrial particles (SMPs). Type of data set: biochemical, bovine. Particulars: bovine SMPs; read-out: ED50, inhibition of mitochondrial ATPase activity. An excerpt: Oligomycin, a macrolide natural product that binds to the mitochondrial F1F0-ATPase, induces a state 3 to 4 transition and generates O2^− like Bz-423. Based on these similarities, it is possible that the F1F0-ATPase is also the molecular target for Bz-423. To test this hypothesis, the effect of Bz-423 on ATPase activity in sub-mitochondrial particles (SMPs) was examined.
>40 derivatives of Bz-423 were developed to determine the elements on this novel agent required for biological activity. […] The potency of these analogues in cell based assays correlated with the ED50 values in ATPase inhibition experiments using SMPs.

Data set [2] addresses peripheral benzodiazepine receptor (PBR) (Homo sapiens, UniProt P30536). The data set is described as follows: Binding to the peripheral benzodiazepine receptor.
Data set [3] concerns neuroblastoma cell line IMR-32. As to the kind of experiment: Antiproliferation, 72 h, media with 10% FBS. Particulars: IMR-32, 72 h, read-out: ED50 (μM) for antiproliferation. Type of data set: cell-based. How it is done: (§1) Like most 1,4-benzodiazepines, Bz-423 binds strongly to bovine serum albumin (BSA), which reduces the effective concentration of drug free in solution. For example, in tissue culture media containing 10% (v/v) fetal bovine serum (FBS), ca. 99% of the drug is bound to BSA. Therefore, cell culture cytotoxicity assays are conducted in media with 2% FBS to reduce binding to BSA and increase the free [Bz-423]. Under these conditions, the dose response-curve is quite sharp such that there is a limited concentration range at which Bz-423 is only partly effective. Since some benzodiazepines are known to have anti-proliferative properties, the effect of Bz-423 at concentrations <ED50 were carefully analyzed and observed that in addition to inducing apoptosis, Bz-423 prevented cell growth after 3 d in culture. In these low serum conditions, the cytotoxic and anti-proliferative effects overlapped making it difficult to study each effect independently. […] While higher amounts of drug may also block proliferation, it caused apoptosis well before the effects on proliferation could be observed.
(§2) To confirm the decrease in cell number relative to control cells after 3 d of treatment is due to decreased proliferation and not cell death balanced by proliferation, in addition to cell counting, cell divisions were studied. PKH-67 is a fluorescent probe that binds irreversibly to cell membranes and upon cell division is partitioned equally between the daughter cells, making it possible to quantify cell division by flow cytometry. Ramos cells stained with PKH67 and treated with Bz-423 had fewer cell divisions at sub-cytotoxic concentrations which confirmed that the decrease in cell number was due to anti-proliferative affects and not cell death. To determine if Bz-423 induced anti-proliferation was specific to Ramos cells, cell counting and cell cycle experiments were done in other B cell lines and cell lines derived from solid tumors.

Data set [4] concerns neuroblastoma cell line SHEP-1. The data set is described as follows: Antiproliferation, 72 h, media with 10% FBS. The class given is cell-based. The following applies: SHEP-1, 72 h, read-out: ED50 (μM) for antiproliferation. The method, then: as §1, §2
The target of data set [5] is T2, bovine serum albumin (BSA) (Bos taurus, UniProt P02769).
T2 construct: from tissue; host or cells: fetal bovine serum (10% v/v) in tissue culture media
T2 sequence (P02769 25-607): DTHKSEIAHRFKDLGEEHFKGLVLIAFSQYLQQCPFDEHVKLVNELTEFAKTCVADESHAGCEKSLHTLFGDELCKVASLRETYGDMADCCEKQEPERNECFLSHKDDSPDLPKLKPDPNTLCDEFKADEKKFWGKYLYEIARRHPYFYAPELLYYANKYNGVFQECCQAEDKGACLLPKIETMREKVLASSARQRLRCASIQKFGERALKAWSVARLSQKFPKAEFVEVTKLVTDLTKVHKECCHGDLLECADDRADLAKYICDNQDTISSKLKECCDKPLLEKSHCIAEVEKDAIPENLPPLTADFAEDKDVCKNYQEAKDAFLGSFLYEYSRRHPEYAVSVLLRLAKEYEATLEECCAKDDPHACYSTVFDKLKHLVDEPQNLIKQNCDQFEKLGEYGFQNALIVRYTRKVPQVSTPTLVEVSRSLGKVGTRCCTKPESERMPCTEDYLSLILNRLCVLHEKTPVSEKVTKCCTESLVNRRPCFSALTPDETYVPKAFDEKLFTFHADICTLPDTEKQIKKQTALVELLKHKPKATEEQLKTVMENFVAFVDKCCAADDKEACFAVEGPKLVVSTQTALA
As to the kind of experiment: Binding to serum albumin in tissue culture media. The class given is in vitro ADME. The following applies: tissue culture media containing 10% (v/v) FBS. The method, then: as §1

In data set [6] the test system is Ramos cells. The data set is described as follows: Gene expression profiling (Affymetrix U133A) of treated cells. The class given is cell-based, human. The following applies: versus control cells. The method, then:
In vitro testing with Ramos cells to determine the changes in gene expression (at the level of mRNA) induced by Bz-423 was performed by culturing cells at a density of 500,000 cells per ml. Solvent control (DMSO, final concentration 0.1% V/V]), Bz-423, or Bz-OMe (10 μM) was added to cells. After 4 h, cells were harvested and RNA prepared using Trizol Reagent (#15596-018, Life Technologies, Rockville, Md.) and the RNeasy Maxi Kit (# 75162, Qiagen, Valencia, Calif.) according to manufacturers protocols. Single stranded cDNA was synthesized by reverse transcription using poly (A) RNA present in the starting total RNA sample. Single stranded cDNA was converted into double stranded cDNA and then in vitro transcription carried out in the presence of biotinylated UTP and CTP to produce biotin-labeled cRNA. cRNA was fragmented in the presence of Mg2+, and hybridized to the human genome U133A Genechip array (Affymetrix). Hybridization results were quantified using a GeneArray scanner and analysis carried out according to the instructions provided by Affymetrix. […]
The data were analyzed to detect genes changes Bz treatment according to the criteria that the log-transformed mean signal changed at least four-fold in treated compared to vehicle control samples and that the coefficient of variance for control values (n=4) was less than 10%. […]

The subject of data set [7] is ornithine decarboxylase (ODC). As to the kind of experiment: ODC activity in treated cells, conversion of 3H-ornithine to putrescine. Type of data set: cell-based. The following applies: cells treated 4 h. The method, then: In these experiments, the conversion of ornithine to putrescine was quantified using ^3H-ornithine. For comparisons, control cells were treated with vehicle control or difluoromethyl ornithine (DFMO), a potent inhibitor of ornithine decarboxylase (like Bz-423, DFMO is a potent anti-proliferative agent). […] The reduction in ODC activity was paralleled by a decrease in ODC protein levels measured under the same conditions.
As described above, Bz-423 induced apoptosis was signaled by an ROS response that arose from MRC complex III as a result of the state 3 to 4 transition. It was next sought to determine if the ROS response, critical for apoptosis, also mediated these effects on ODC. If the ROS was required for the decrease in ODC activity, it would likewise be implicated as potentially part of the anti-proliferative response to Bz-423. To test this, Ramos cells were treated with Bz-423, DFMO, or vehicle control for 4 h. In parallel, a second group of cells was pre-incubated with MnTBAP to limit the ROS and then cultured with Bz-423, DFMO, and vehicle control.

Data set [8] has as its system Ramos cells. As to the kind of experiment: Cytotoxicity in media containing 10% FBS. Type of data set: cell-based, human.
Excerpt: as §1, with “Therefore, cell culture cytotoxicity assays are conducted in media with 2% FBS to reduce binding to BSA and increase the free [Bz-423].” left out

Sequence of peripheral benzodiazepine receptor (PBR) (P30536 whole entry, species assumed): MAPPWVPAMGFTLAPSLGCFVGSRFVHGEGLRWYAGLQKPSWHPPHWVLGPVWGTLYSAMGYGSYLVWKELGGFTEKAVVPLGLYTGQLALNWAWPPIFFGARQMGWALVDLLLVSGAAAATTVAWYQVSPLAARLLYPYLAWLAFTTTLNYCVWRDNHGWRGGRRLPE

What is called pKd is the negative decadic logarithm of the Kd, by convention in mol/L. Low readings indicate a large Kd, high ones a small Kd. On to `CN1C(=O)C(Cc2ccc3ccccc3c2)N=C(c2ccc(O)cc2)c2cc(Cl)ccc21` (stereo not drawn) [Bz-423], for which the pEC50 in data set [1] was ~5.30. The pKd in data set [2] was ~6.00. The EC50 in data set [3] worked out at 18 µM; in data set [4], 15.9 µM. In addition, the “Drug bound to BSA” value in data set [5] is reported as “ca. 99%”. In addition, in the data set on Ramos cells [6], the “Induction of MIF expression” value is recorded as “approximately 10 fold”. Further, the “Effect on ODC activity” value in data set [7] is recorded as “significantly reduced ODC activity”. In addition, the values for the Cytotoxicity entry with Ramos cells [8] (10–15 μM) and in the data set with Ramos cells [8] (>20 μM) were “minimal cytotoxicity” and “only apoptosis was observed”, respectively.
